For orientation: IC50 means the concentration at which inhibition is half-maximal. Read a high IC50 as weaker potency.

These results are taken from patent US20140323519A1, “HETEROCYCLIC COMPOUNDS AS B-RAF INHIBITORS FOR TREATMENT OF CANCER” (MERCK SHARP & DOHME CORP., priority 2011, published 2014).

SMILES strings stand for the structures.

For this assay, the target named is T1, B-Raf kinase (Homo sapiens, UniProt P15056).
T1 construct: purchased Upstate 14-530
T1 sequence (P15056 416-766 limits assumed): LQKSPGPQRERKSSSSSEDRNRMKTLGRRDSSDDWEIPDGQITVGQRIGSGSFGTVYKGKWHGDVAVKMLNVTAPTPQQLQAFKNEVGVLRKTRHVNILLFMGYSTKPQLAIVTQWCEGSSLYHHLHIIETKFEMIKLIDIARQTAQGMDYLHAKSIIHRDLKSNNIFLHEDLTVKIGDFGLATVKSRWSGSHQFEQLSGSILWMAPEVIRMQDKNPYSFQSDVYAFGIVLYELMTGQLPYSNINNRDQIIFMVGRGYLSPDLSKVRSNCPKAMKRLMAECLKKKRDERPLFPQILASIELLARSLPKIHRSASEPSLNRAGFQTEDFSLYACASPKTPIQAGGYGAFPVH
As to the kind of experiment: B-Raf kinase assay (IMAP fluorescence polarisation, B-raf/MEK1/ERK2 cascade). The format is biochemical. The settings on record: B-raf 0.2 U/mL, 50 μM ATP, 60 min pre-incubation, FP readout. Here is the method: Other assays are known in the literature and could be readily performed by those of skill in the art.
9) B-raf, active enzyme (for example #14-530, Upstate)
13) Fluorescein labeled substrate peptide (“ERK-tide”; IPTTPITTTYFFFK-5FAM-COOH), (for example #R7292/#R7293, Molecular Devices)
Prepare fresh Kinase Reaction buffer (KR-buffer) just before use: 50 mL Reaction buffer+50 μl 1 M DTT (1 mM final concentration). Serial dilutions of test compounds are made in 100% DMSO. For example a 10 points half log serial dilution from 1 mM to 31.6 nM leading to a final compound concentration range in the assay from 10 μM to 0.316 nM can be used.
1) Add 2.5 μL/well test compound in KR-buffer (this solution contains 8% DMSO) or (in minimum, maximum and background wells) 2.5 μL/well KR-buffer containing 8% DMSO. (Final DMSO concentration in the assay is 1%).
2) Add 5 μL/well 0.8 U/mL B-raf enzyme diluted in KR-buffer (final B-raf enzyme concentration in the assay is 0.2 U/mL) to all wells.
3) Pre-incubate 60 minutes at room temperature in the dark.
4) Add 5 μL/well 256 ng/mL MEK1 enzyme diluted in KR-buffer (final MEK1 enzyme concentration in the assay is 64 ng/mL) to all wells.
5) Add 5 μL/well 2.4 μg/mL Erk2 enzyme with 200 nM Fl-peptide substrate diluted in KR-buffer (final concentration in the assay of Erk2 enzyme is 600 ng/mL and of Fl-peptide substrate is 50 nM) to all wells except the background wells. Add here 5 μL/well 2.4 μg/mL Erk2 enzyme without 200 nM Fl-peptide substrate.
6) Add 2.5 μL/well 400 μM ATP to minimum and compound wells (50× dilution of the mM stock in KR-buffer, final ATP concentration in the assay is 50 μM) or (in maximum wells) 2.5 μl/well KR-buffer.
7) Incubate 60 minutes at 30° C. in the dark.
8) Add 20 μL/well IMAP Progressive Binding Solution (IMAP Progressive Binding Solution: 75% 1× buffer A and 25% 1× buffer B with 1:900 dilution of Progressive Binding Reagent, all kit contents) to all wells.
9) Incubate 60 minutes at room temperature in the dark.
10) Read the FP signal on Envision multi-label reader.
On every 384-well assay plate, 16-18 wells are used as minimum wells (wells without inhibitor, 0% effect), 16-18 wells are used as maximum wells (wells without ATP, 100% effect). 16 wells are used for measuring the background signal (everything but not substrate). For all assay plates duplicates are prepared.
Run as two independent experiments (N=2) on duplicate plates (n=2).
IC50 Determinations: mP values of compound test wells are converted to percent effect based on 0% effect and 100% effect controls. Dose-response curves were generated from percent effect data plotted against test compound concentration, each in duplicate, from 10 point serial dilutions of inhibitory compounds. To generate IC50 values, the dose-response curves were fitted to a standard sigmoidal curve and IC50 values were derived by nonlinear regression analysis.
`Cc1ccc(NC(=O)c2cccc(C(C)(C)C#N)c2)cc1-n1c(=O)n(C)c2ccccc21` [Compound 1-6, 3-(2-cyanopropan-2-yl)-N-(4-methyl-3-(3-methyl-2-oxo-2,3-dihydro-1H-benzo[d]imidazol-1-yl)phenyl)benzamide] gave an IC50 of 0.05 to 0.1 µM.

For `Cc1ccc(NC(=O)c2cccc(C(C)(C)C#N)c2)cc1N1CCN(c2ccccc2)C1=O` [Compound 1-8, 3-(Cyano-dimethyl-methyl)-N-[4-methyl-3-(2-oxo-3-phenyl-imidazolidin-1-yl)-phenyl]-benzamide], the 50% inhibitory concentration (IC50) is > 0.1 µM.

Turning to `Cc1ccc(NC(=O)c2cccc(C(C)(C)C#N)c2)cc1N1CC(c2ccccc2)OC1=O` (stereo not drawn) [Compound 1-7, 3-(Cyano-dimethyl-methyl)-N-[4-methyl-3-(2-oxo-5-phenyl-oxazolidin-3-yl)-phenyl]-benzamide], the IC50 is 0.05 to 0.1 µM.

Take `Cc1ccc(NC(=O)c2cccc(C(C)(C)C#N)c2)cc1N1CC(c2ccccc2)CC1=O` (stereo not drawn) [Compound 1-5, 3-(Cyano-dimethyl-methyl)-N-[4-methyl-3-(2-oxo-4-phenyl-pyrrolidin-1-yl)-phenyl]-benzamide]: the IC50 lay within 0.05 to 0.1 µM.

As to `COc1ccc2c(c1)C(=O)N(c1cc(NC(=O)c3cccc(C(C)(C)C#N)c3)ccc1C)C2` [Compound 1-1, 3-(2-cyanopropan-2-yl)-N-(3-(6-methoxy-1-oxoisoindolin-2-yl)-4-methylphenyl)benzamide], the IC50 lay in the range of 0.05 to 0.1 µM.

`COc1ccc2c(c1)n(-c1cc(NC(=O)c3cccc(C(C)(C)C#N)c3)ccc1C)c(=O)n2C` [Compound 1-9, 3-(Cyano-dimethyl-methyl)-N-[3-(6-methoxy-3-methyl-2-oxo-2,3-dihydro-benzoimidazol-1-yl)-4-methyl-phenyl]-benzamide]: the IC50 was > 0.1 µM.
